From EP2961788B1, “NANOPARTICLES STABILIZED WITH NITROPHENYLBORONIC ACID COMPOSITIONS” (priority 2013, dated 2014)
Like-named read-outs stand apart in the source and are kept apart here.

Tested on: BT-474 xenograft tumors
Procedure: Treatments began on day 1. […] All treatments were freshly prepared and given via intravenous tail vein injection. Injections were standardized at 150 µl per 20 g body weight of mice. […] Tumor sizes were recorded three times a week using caliper measurements (length x width^2/2) and health of the animals was continuously monitored. Animals were euthanized when tumor volumes exceeded 1000 mm^3. Six weeks after beginning of the treatment, animals were euthanized by CO2 asphyxiation.

[1] = 8 mg/kg, once per week for 3 weeks
[2] = 80 mg/kg, once per week for 3 weeks

Compound	Nend (number of animals surviving to end of study) (8 mg/kg (MAP-CPT: CPT basis), i.v. once per week for 3 weeks)	NTRD (number of treatment related death) [1]	Nreg to zero [1]	tumor inhibition compared to control group [1]	NTRD (number of treatment related death) [2]	Neuthan (number of animals euthanized due to exceeding tumor size limit of 1000 mm^3) [2]	Nreg to zero [2]	tumor inhibition compared to control group [2]
CC[C@@]1(O)C(=O)OCc2c1cc1n(c2=O)Cc2cc3ccccc3nc2-1 [CPT, Camptothecin]	8/0	4	0	no tumor inhibition				
CCc1c2c(nc3ccc(OC(=O)N4CCC(N5CCCCC5)CC4)cc13)-c1cc3c(c(=O)n1C2)COC(=O)[C@]3(O)CC [Irinotecan]					1	0	0	non-significant tumor inhibition
